Assay results: US9040458B2, “Safening composition of 6-(trisubstituded phenyl)-4-amino-2-pyridinecarboxylate herbicides and cloquintocet-mexyl for cereal crops” (Dow AgroSciences LLC, priority 2008, dated 2015)
Where a name gives a salt, the structure may show the parent alone.

Assays:
[1] = tested on: TRZAS = Triticum aestivum (spring wheat); assay: Postemergence herbicidal safening, greenhouse, visual injury; type: in vivo; conditions: 20-22 d, listed as (1) K-salt
Method: (§1) Seeds of the desired test plant species were planted in Sun Gro MetroMix® 306 planting mixture, which typically has a pH of 6.0 to 6.8 and an organic matter content of about 30 percent, in plastic pots with a surface area of 103.2 square centimeters (cm^2). When required to ensure good germination and healthy plants, a fungicide treatment and/or other chemical or physical treatment was applied. The plants were grown for 7-36 days (d) in a greenhouse with an approximate […] photoperiod which was maintained at about 18° C. during the day and 17° C. during the night. Nutrients and water were added on a regular basis and supplemental lighting was provided with overhead metal halide 1000-Watt lamps as necessary. The plants were employed for testing when they reached the second or third true leaf stage.
(§2) Weighed amounts of esters (methyl) or salts (TEA [triethylammonium], potassium [K]) of 4-amino-3-chloro-6-(4-chloro-2-fluoro-3-methoxyphenyl)pyridine-2-carboxylic acid (Compound 1) were dissolved in a volume of 97:3 volume/volume (v/v) acetone/dimethylsulfoxide (DMSO) to obtain stock solutions. […] The concentrated stock solutions were diluted with an aqueous mixture of 1.5% v/v of Agri-dex crop oil concentrate to provide the appropriate application rates. Compound requirements are based upon a 12 mL application volume at a rate of 187 liters per hectare (L/ha). Stocks solutions of the safeners were prepared following the same procedure. Spray solutions of the safeners and experimental compound mixtures were prepared by adding the appropriate volume of both stock solutions to the appropriate amount of dilution solution to form a 12 mL spray solution with active ingredients in two-way combinations. Formulated compounds were applied to the plant material with an overhead Mandel track sprayer equipped with 8002E nozzles calibrated to deliver 187 L/ha over an application area of 0.503 square meters (m^2) at a spray height of 18 inches (43 centimeters (cm)) above average plant canopy. Control plants were sprayed in the same manner with the solvent blank.
(§3) The treated plants and control plants were placed in a greenhouse as described above and watered by sub-irrigation to prevent wash-off of the test compounds. After 20-22 d, the condition of the test plants as compared with that of the control plants was determined visually and scored on a scale of 0 to 100 percent where 0 corresponds to no injury and 100 corresponds to complete kill.
(§4) Colby's equation was used to determine the herbicidal effects expected from the mixtures (Colby, S. R., Calculation of the synergistic and antagonistic response of herbicide combinations. Weeds 1967, 15, 20-22.).
(§5) The following equation was used to calculate the expected activity of mixtures containing two active ingredients, A and B: Expected=A+B−(A×B/100)
(§6) A=observed efficacy of active ingredient A at the same concentration as used in the mixture.
(§7) B=observed efficacy of active ingredient B at the same concentration as used in the mixture.

[2] = tested on: HORVS = Hordeum vulgare (spring barley); assay: as above; type: in vivo; conditions: 20-22 d, listed as (1) K-salt
Method: as §1, §2, §3, §4, §5, §6, §7

[3] = tested on: MATCH = Matricaria chamomila (scented mayweed); assay: Postemergence herbicidal activity, greenhouse, visual injury; type: in vivo; conditions: 20-22 d
Method: as §1, §2, §3, §4, §5, §6, §7

[4] = tested on: VERPE = Veronica persica (bird's-eye speedwell); assay: as above; type: in vivo; conditions: 20-22 d
Method: as §1, §2, §3, §4, §5, §6, §7

[5] = tested on: KCHSC = Kochia scoparia (kochia); assay: as above; type: in vivo; conditions: 20-22 d
Method: as §1, §2, §3, §4, §5, §6, §7

[6] = tested on: SASKR = Salsola iberica (Russian thistle); assay: as above; type: in vivo; conditions: 20-22 d
Method: as §1, §2, §3, §4, §5, §6, §7

[7] = tested on: VIOTR = Viola tricolor (wild pansy); assay: as above; type: in vivo; conditions: 20-22 d
Method: as §1, §2, §3, §4, §5, §6, §7

PAPRH (corn poppy) = assay: as above; type: in vivo, Papaver rhoeas; conditions: 20-22 d
Method: as §1, §2, §3, §4, §5, §6, §7

[8] = tested on: LAMPU (purple deadnettle); assay: as above; type: in vivo, Lamium purpureum; conditions: 20-22 d
Method: as §1, §2, §3, §4, §5, §6, §7

POLCO (wild buckwheat) = assay: as above; type: in vivo, Polygonum convolvulus; conditions: 20-22 d
Method: as §1, §2, §3, §4, §5, §6, §7

[9] = tested on: GALAP = Galium aparine (cleavers); assay: as above; type: in vivo; conditions: 20-22 d
Method: as §1, §2, §3, §4, §5, §6, §7

[10] = tested on: STEME = Stellaria media (common chickweed); assay: as above; type: in vivo; conditions: 20-22 d
Method: as §1, §2, §3, §4, §5, §6, §7

[11] = applied alone at 140 g/ha, listed as (1) K-salt

COc1c(Cl)ccc(-c2cc(N)c(Cl)c(C(=O)O)n2)c1F [Compound (1) K-salt, 4-amino-3-chloro-6-(4-chloro-2-fluoro-3-methoxyphenyl)pyridine-2-carboxylic acid]
52%: TRZAS Ob (observed injury) ([1]; applied alone at 140 g/ha)
11%: TRZAS Ob (observed injury) ([1]; applied alone at 70 g/ha)
45%: HORVS Ob (observed injury) ([2]; applied alone at 140 g/ha)
43%: TRZAS Ob (observed injury) ([1]; applied alone at 35 g/ha)
63%: VIOTR Ob (observed injury) [7, 11]
38%: HORVS Ob (observed injury) ([2]; applied alone at 35 g/ha)
25%: HORVS Ob (observed injury) ([2]; applied alone at 8.75 g/ha)
100%: KCHSC Ob (observed injury) [5, 11]
87%: VERPE Ob (observed injury) [4, 11] | SASKR Ob (observed injury) [6, 11]
88%: MATCH Ob (observed injury) [3, 11]
15%: TRZAS Ob (observed injury) ([1]; applied alone at 8.75 g/ha)

CCCCCC(C)OC(=O)COc1ccc(Cl)c2cccnc12 (stereo not shown) [Cloquintocet-mexyl, cloquintocet-mexyl]
0%: PAPRH Ob (observed injury) (PAPRH (corn poppy); applied alone at 1.1 g/ha) | PAPRH Ob (observed injury) (PAPRH (corn poppy); applied alone at 2.2 g/ha) | PAPRH Ob (observed injury) (PAPRH (corn poppy); applied alone at 4.4 g/ha) | PAPRH Ob (observed injury) (PAPRH (corn poppy); applied alone at 8.75 g/ha) | PAPRH Ob (observed injury) (PAPRH (corn poppy); applied alone at 17.5 g/ha) | PAPRH Ob (observed injury) (PAPRH (corn poppy); applied alone at 35 g/ha) | PAPRH Ob (observed injury) (PAPRH (corn poppy); applied alone at 70 g/ha) | LAMPU Ob (observed injury) ([8]; applied alone at 1.1 g/ha) | LAMPU Ob (observed injury) ([8]; applied alone at 2.2 g/ha) | LAMPU Ob (observed injury) ([8]; applied alone at 4.4 g/ha) | LAMPU Ob (observed injury) ([8]; applied alone at 8.75 g/ha) | LAMPU Ob (observed injury) ([8]; applied alone at 17.5 g/ha) | LAMPU Ob (observed injury) ([8]; applied alone at 35 g/ha) | LAMPU Ob (observed injury) ([8]; applied alone at 70 g/ha) | POLCO Ob (observed injury) (POLCO (wild buckwheat); applied alone at 1.1 g/ha) | POLCO Ob (observed injury) (POLCO (wild buckwheat); applied alone at 2.2 g/ha) | POLCO Ob (observed injury) (POLCO (wild buckwheat); applied alone at 4.4 g/ha) | POLCO Ob (observed injury) (POLCO (wild buckwheat); applied alone at 8.75 g/ha) | POLCO Ob (observed injury) (POLCO (wild buckwheat); applied alone at 17.5 g/ha) | POLCO Ob (observed injury) (POLCO (wild buckwheat); applied alone at 35 g/ha) | POLCO Ob (observed injury) (POLCO (wild buckwheat); applied alone at 70 g/ha) | MATCH Ob (observed injury) ([3]; applied alone at 1.0937 g/ha) | MATCH Ob (observed injury) ([3]; applied alone at 1.1 g/ha) | MATCH Ob (observed injury) ([3]; applied alone at 2.1875 g/ha) | MATCH Ob (observed injury) ([3]; applied alone at 2.2 g/ha) | MATCH Ob (observed injury) ([3]; applied alone at 4.375 g/ha) | MATCH Ob (observed injury) ([3]; applied alone at 4.4 g/ha) | MATCH Ob (observed injury) ([3]; applied alone at 8.75 g/ha) | MATCH Ob (observed injury) ([3]; applied alone at 17.5 g/ha) | MATCH Ob (observed injury) ([3]; applied alone at 35 g/ha) | MATCH Ob (observed injury) ([3]; applied alone at 70 g/ha) | GALAP Ob (observed injury) ([9]; applied alone at 1.1 g/ha) | GALAP Ob (observed injury) ([9]; applied alone at 2.2 g/ha) | GALAP Ob (observed injury) ([9]; applied alone at 4.4 g/ha) | GALAP Ob (observed injury) ([9]; applied alone at 8.75 g/ha) | GALAP Ob (observed injury) ([9]; applied alone at 17.5 g/ha) | GALAP Ob (observed injury) ([9]; applied alone at 35 g/ha) | GALAP Ob (observed injury) ([9]; applied alone at 70 g/ha) | VERPE Ob (observed injury) ([4]; applied alone at 1.0937 g/ha) | VERPE Ob (observed injury) ([4]; applied alone at 1.1 g/ha) | VERPE Ob (observed injury) ([4]; applied alone at 2.1875 g/ha) | VERPE Ob (observed injury) ([4]; applied alone at 2.2 g/ha) | VERPE Ob (observed injury) ([4]; applied alone at 4.375 g/ha) | VERPE Ob (observed injury) ([4]; applied alone at 4.4 g/ha) | VERPE Ob (observed injury) ([4]; applied alone at 8.75 g/ha) | VERPE Ob (observed injury) ([4]; applied alone at 17.5 g/ha) | VERPE Ob (observed injury) ([4]; applied alone at 35 g/ha) | VERPE Ob (observed injury) ([4]; applied alone at 70 g/ha) | KCHSC Ob (observed injury) ([5]; applied alone at 1.0937 g/ha) | KCHSC Ob (observed injury) ([5]; applied alone at 1.1 g/ha) | KCHSC Ob (observed injury) ([5]; applied alone at 2.1875 g/ha) | KCHSC Ob (observed injury) ([5]; applied alone at 2.2 g/ha) | KCHSC Ob (observed injury) ([5]; applied alone at 4.375 g/ha) | KCHSC Ob (observed injury) ([5]; applied alone at 4.4 g/ha) | KCHSC Ob (observed injury) ([5]; applied alone at 8.75 g/ha) | KCHSC Ob (observed injury) ([5]; applied alone at 17.5 g/ha) | KCHSC Ob (observed injury) ([5]; applied alone at 35 g/ha) | KCHSC Ob (observed injury) ([5]; applied alone at 70 g/ha) | SASKR Ob (observed injury) ([6]; applied alone at 1.0937 g/ha) | SASKR Ob (observed injury) ([6]; applied alone at 1.1 g/ha) | SASKR Ob (observed injury) ([6]; applied alone at 2.1875 g/ha) | SASKR Ob (observed injury) ([6]; applied alone at 2.2 g/ha) | SASKR Ob (observed injury) ([6]; applied alone at 4.375 g/ha) | SASKR Ob (observed injury) ([6]; applied alone at 4.4 g/ha) | SASKR Ob (observed injury) ([6]; applied alone at 8.75 g/ha) | SASKR Ob (observed injury) ([6]; applied alone at 17.5 g/ha) | SASKR Ob (observed injury) ([6]; applied alone at 35 g/ha) | SASKR Ob (observed injury) ([6]; applied alone at 70 g/ha) | VIOTR Ob (observed injury) ([7]; applied alone at 1.0937 g/ha) | VIOTR Ob (observed injury) ([7]; applied alone at 1.1 g/ha) | VIOTR Ob (observed injury) ([7]; applied alone at 2.1875 g/ha) | VIOTR Ob (observed injury) ([7]; applied alone at 2.2 g/ha) | VIOTR Ob (observed injury) ([7]; applied alone at 4.375 g/ha) | VIOTR Ob (observed injury) ([7]; applied alone at 4.4 g/ha) | VIOTR Ob (observed injury) ([7]; applied alone at 8.75 g/ha) | VIOTR Ob (observed injury) ([7]; applied alone at 17.5 g/ha) | VIOTR Ob (observed injury) ([7]; applied alone at 35 g/ha) | VIOTR Ob (observed injury) ([7]; applied alone at 70 g/ha) | STEME Ob (observed injury) ([10]; applied alone at 1.1 g/ha) | STEME Ob (observed injury) ([10]; applied alone at 2.2 g/ha) | STEME Ob (observed injury) ([10]; applied alone at 4.4 g/ha) | STEME Ob (observed injury) ([10]; applied alone at 8.75 g/ha) | STEME Ob (observed injury) ([10]; applied alone at 17.5 g/ha) | STEME Ob (observed injury) ([10]; applied alone at 35 g/ha) | STEME Ob (observed injury) ([10]; applied alone at 70 g/ha)
